Measured values taken from patent US20110039763A1, “TARGETED ANTIMICROBIAL MOIETIES” (C3 JIAN, INC., priority 2009, published 2011).
Ends that are not written are not given here.

Legend:
microorganisms [1] = test: Peptide activities: targeting/binding, antimicrobial, growth or phenotype altering (Tables 7, 8); assay type: cell-based; parameters: key: B: targeting/binding activity;; M: antimicrobial activity;; G: Growth or phenotype altering; settings: peptides having multiple activities
Description: In certain embodiments, peptides described herein can have multiple activities. Thus for example, a peptide can have both binding/targeting activity and antimicrobial activity. Such peptides can be used, e.g., in a chimeric construct, for any or all of these properties. Thus, for example, a peptide designated “B” in Table 8 can be used as a targeting peptide. If it is also designated G or M it can also be used for antimicrobial activity.
Table 8. Peptides Having Multiple Activities. B: Targeting/Binding Activity; M: Antimicrobial Activity; G: GROWTH or Phenotype Altering.

microorganisms [2] = test: Morphology, biofilm and growth disrupting peptides (Table 5); assay type: cell-based; parameters: key: A: Peptide aggregates; B: Less hyphal formation; Clumps; Diffuse clumps and small polyps; F: Diffuse growth; H: Thin; I: Growth inhibition; Microcolony formation; Rippled; Small polyps; Thick; W: Halo formation on top, microlonies on bottom
Description: In certain embodiments peptides that induce alterations in phenotype or other biological activities can also be used as antimicrobial effector moieties.

Substance	Activities (microorganisms [1])	Organism, effect (microorganisms [2]; E. faecalis)	Organism, effect (microorganisms [2]; MRSA)	Organism, effect (microorganisms [2]; S. epidermidis)	Organism, effect (microorganisms [2]; S. pneumoniae)	Organism, effect (microorganisms [2]; E. coli)	also measured
PF-410: peptide having multiple activities (chain 1 FALELIALCRNLFIVYFP; chain 2 FALELIALCRNLFIVYFP; Peptide with targeting and/or antimicrobial activity)	G B						Organism, effect: E. coli (microorganisms [2]; E. coli): E. coli (S); Organism, effect: E. faecalis (microorganisms [2]; E. faecalis): E. faecalis (C); Organism, effect: MRSA (microorganisms [2]; MRSA): MRSA (M); Organism, effect: S. epidermidis (microorganisms [2]; S. epidermidis): S. epidermidis (C)
PF-411: peptide having multiple activities (chain 1 WVAVAILLNIALQTQLT; chain 2 WVAVAILLNIALQTQLT; Peptide with targeting and/or antimicrobial activity)	G B						Organism, effect: C. jejuni (microorganisms [2]; C. jejuni): C. jejuni (D); Organism, effect: E. coli (microorganisms [2]; E. coli): E. coli (C); Organism, effect: E. faecalis (microorganisms [2]; E. faecalis): E. faecalis (D); Organism, effect: MRSA (microorganisms [2]; MRSA): MRSA (D); Organism, effect: P. aeruginosa (microorganisms [2]; P. aeruginosa): P. aeruginosa (A); Organism, effect: S. epidermidis (microorganisms [2]; S. epidermidis): S. epidermidis (C); Organism, effect: S. pneumoniae (microorganisms [2]; S. pneumoniae): S. pneumoniae (D)
PF-418: peptide having multiple activities (chain 1 FFLVHFYIRKRKGKVSIFLNYF; chain 2 FFLVHFYIRKRKGKVSIFLNYF; Peptide with targeting and/or antimicrobial activity)	G B						Organism, effect: C. jejuni (microorganisms [2]; C. jejuni): C. jejuni (D); Organism, effect: E. coli (microorganisms [2]; E. coli): E. coli (C); Organism, effect: E. faecalis (microorganisms [2]; E. faecalis): E. faecalis (D); Organism, effect: MRSA (microorganisms [2]; MRSA): MRSA (D); Organism, effect: S. epidermidis (microorganisms [2]; S. epidermidis): S. epidermidis (M); Organism, effect: S. pneumoniae (microorganisms [2]; S. pneumoniae): S. pneumoniae (D)
PF-431: peptide having multiple activities (chain 1 VAYAAICWW; chain 2 VAYAAICWW; Peptide with targeting and/or antimicrobial activity)	G B	E. faecalis (R)	MRSA (C)	S. epidermidis (M)	S. pneumoniae (R)		Organism, effect (microorganisms [2]; C. jejuni): C. jejuni (R)
PF-432: peptide having multiple activities (chain 1 FNGDSEFFLCIAF; chain 2 FNGDSEFFLCIAF; Peptide with targeting and/or antimicrobial activity)	G B	E. faecalis (D)	MRSA (M)	S. epidermidis (M)	S. pneumoniae (D)	E. coli (R)	Organism, effect (microorganisms [2]; C. jejuni): C. jejuni (D); Organism, effect (microorganisms [2]; P. aeruginosa): P. aeruginosa (A)
PF-439: peptide having multiple activities (chain 1 RVLVLKKFHGIMDGNRNVAVFFVGQ; chain 2 RVLVLKKFHGIMDGNRNVAVFFVGQ; Peptide with targeting and/or antimicrobial activity)	G B	E. faecalis (C)	MRSA (M)	S. epidermidis (C)	S. pneumoniae (R)	E. coli (R)	
PF-440: peptide having multiple activities (MFIISPDLFNIAVILYILFFIHDILLLILS; Peptide with targeting and/or antimicrobial activity)	G B	E. faecalis (C)	MRSA (C)	S. epidermidis (C)	S. pneumoniae (R)	E. coli (R)	
PF-443: peptide having multiple activities (KLLYFFNYFENLQQVHLLVQL; Peptide with targeting and/or antimicrobial activity)	G B		MRSA (C)		S. pneumoniae (C)	E. coli (R)	
PF-450: peptide having multiple activities (HRNLIILQRTIFI; Peptide with targeting and/or antimicrobial activity)	G B	E. faecalis (C)	MRSA (C)		S. pneumoniae (C)		
PF-451: peptide having multiple activities (MVNYIIGSYMLYREQNNNEALRKFDITLAM; Peptide with targeting and/or antimicrobial activity)	G B	E. faecalis (C)	MRSA (C)	S. epidermidis (C)	S. pneumoniae (C)	E. coli (R)	
PF-454: peptide having multiple activities (MSVFVPVTNIFMFIMSPIFNVNLLHFKVYI; Peptide with targeting and/or antimicrobial activity)	G B	E. faecalis (C)	MRSA (C)	S. epidermidis (C)	S. pneumoniae (R)	E. coli (R)	Organism, effect (microorganisms [2]; P. aeruginosa): P. aeruginosa (H)
PF-458: peptide having multiple activities (ISLIIFIMLFVVALFKCITNYKHQS; Peptide with targeting and/or antimicrobial activity)	G B		MRSA (M)		S. pneumoniae (M)		Organism, effect (microorganisms [2]; P. aeruginosa): P. aeruginosa (H)
PF-460: peptide having multiple activities (MEHVLPFQNTPPNIVIIYKDFTHLKSITFS; Peptide with targeting and/or antimicrobial activity)	G B	E. faecalis (C)	MRSA (C)	S. epidermidis (C)	S. pneumoniae (R)	E. coli (H)	
PF-465: peptide having multiple activities (KPVGKALEEIADGKIEPVVPKEYLG; Peptide with targeting and/or antimicrobial activity)	G B				S. pneumoniae (H)		
PF-469: peptide having multiple activities (YKVNYNNIDNHFNTLRH; Peptide with targeting and/or antimicrobial activity)	G B	E. faecalis (D)	MRSA (D)	S. epidermidis (D)	S. pneumoniae (D)	E. coli (C)	Organism, effect (microorganisms [2]; C. jejuni): C. jejuni (D)
PF-474: peptide having multiple activities (MHRNLVLVKMEPIPHIMIIANQIGIIIEKA; Peptide with targeting and/or antimicrobial activity)	G B	E. faecalis (C)	MRSA (D)	S. epidermidis (C)	S. pneumoniae (D)	E. coli (C)	Organism, effect (microorganisms [2]; C. albicans): C. albicans (B); Organism, effect (microorganisms [2]; C. jejuni): C. jejuni (D); Organism, effect (microorganisms [2]; P. aeruginosa): P. aeruginosa (A)
PF-478: peptide having multiple activities (HLFILKSHLKPFPPFRYTYD; Peptide with targeting and/or antimicrobial activity)	G B		MRSA (H)	S. epidermidis (C)	S. pneumoniae (C)	E. coli (C)	
PF-479: peptide having multiple activities (AYILKRREEKNK; Peptide with targeting and/or antimicrobial activity)	G B				S. pneumoniae (C)		
PF-482: peptide having multiple activities (LVGYVRTSGTVRSYKIN; Peptide with targeting and/or antimicrobial activity)	G B				S. pneumoniae (S)		
PF-516: peptide having multiple activities (ASKQASKQASKQASKQ; Peptide with targeting and/or antimicrobial activity)	G				S. pneumoniae (H)		
PF-526: peptide having multiple activities (VLLLFIFQPFQKQLL-NH2)	G B		MRSA (C)	S. epidermidis (C)	S. pneumoniae (R)	E. coli (R)	Organism, effect (microorganisms [2]; C. albicans): C. albicans (C)
PF-537: peptide having multiple activities (LANDYYKKTKKSW; Peptide with targeting and/or antimicrobial activity)	G B				S. pneumoniae (C)		
PF-539: peptide having multiple activities (SIILTKKKRRKIPLSIDSQIYKYTFKQ; Peptide with targeting and/or antimicrobial activity)	G B		MRSA (H)		S. pneumoniae (A)		
PF-543: peptide having multiple activities (NILFGIIGFVVAMTAAVIVTAISIAK; Peptide with targeting and/or antimicrobial activity)	G B		MRSA (D)	S. epidermidis (D)	S. pneumoniae (D)	E. coli (C)	Organism, effect (microorganisms [2]; M. luteus): M. luteus (C); Organism, effect (microorganisms [2]; S. mutans): S. mutans (S)
